Results taken from BindingDB's records for doi:10.1016/j.chembiol.2011.05.010 (Harvard Medical School, 2011).

Assays:
Experiment in all cases: Biochemical Assay
[1] = molecular target: T1, Aurora kinase A (Homo sapiens, UniProt O14965)
T1 sequence (O14965 whole entry): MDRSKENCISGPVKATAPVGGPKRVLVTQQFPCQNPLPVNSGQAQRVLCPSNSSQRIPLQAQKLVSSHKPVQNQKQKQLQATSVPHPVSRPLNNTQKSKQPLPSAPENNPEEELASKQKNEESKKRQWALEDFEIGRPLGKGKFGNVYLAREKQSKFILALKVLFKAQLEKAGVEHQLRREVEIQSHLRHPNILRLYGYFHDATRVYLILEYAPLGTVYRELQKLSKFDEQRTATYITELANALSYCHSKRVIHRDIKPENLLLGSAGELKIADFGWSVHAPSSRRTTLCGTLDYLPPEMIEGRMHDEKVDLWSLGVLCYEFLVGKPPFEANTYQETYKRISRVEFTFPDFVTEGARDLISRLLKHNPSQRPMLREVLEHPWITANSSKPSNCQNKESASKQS
Method: (§1) In vitro biochemical assays were performed in parallel to determine the most potent tool compound.

[2] = molecular target: Aurora kinase B (Homo sapiens, UniProt Q96GD4)
Method: as §1

[3] = molecular target: T2, Aurora kinase C (Homo sapiens, UniProt Q9UQB9)
T2 sequence (Q9UQB9 whole entry): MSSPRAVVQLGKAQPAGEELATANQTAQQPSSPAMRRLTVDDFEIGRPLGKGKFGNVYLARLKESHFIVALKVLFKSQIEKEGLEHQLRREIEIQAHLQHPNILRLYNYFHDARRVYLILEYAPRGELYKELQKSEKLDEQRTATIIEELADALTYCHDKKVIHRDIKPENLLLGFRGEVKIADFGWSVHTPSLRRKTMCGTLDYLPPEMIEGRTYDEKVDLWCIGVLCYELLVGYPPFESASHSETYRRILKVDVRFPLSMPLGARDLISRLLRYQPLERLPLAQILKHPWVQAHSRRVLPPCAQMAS
Method: as §1

[4] = molecular target: Homeodomain-interacting protein kinase 2 (Homo sapiens, UniProt Q9H2X6)
Method: as §1

Chain of Homeodomain-interacting protein kinase 2 (Q9H2X6 whole entry): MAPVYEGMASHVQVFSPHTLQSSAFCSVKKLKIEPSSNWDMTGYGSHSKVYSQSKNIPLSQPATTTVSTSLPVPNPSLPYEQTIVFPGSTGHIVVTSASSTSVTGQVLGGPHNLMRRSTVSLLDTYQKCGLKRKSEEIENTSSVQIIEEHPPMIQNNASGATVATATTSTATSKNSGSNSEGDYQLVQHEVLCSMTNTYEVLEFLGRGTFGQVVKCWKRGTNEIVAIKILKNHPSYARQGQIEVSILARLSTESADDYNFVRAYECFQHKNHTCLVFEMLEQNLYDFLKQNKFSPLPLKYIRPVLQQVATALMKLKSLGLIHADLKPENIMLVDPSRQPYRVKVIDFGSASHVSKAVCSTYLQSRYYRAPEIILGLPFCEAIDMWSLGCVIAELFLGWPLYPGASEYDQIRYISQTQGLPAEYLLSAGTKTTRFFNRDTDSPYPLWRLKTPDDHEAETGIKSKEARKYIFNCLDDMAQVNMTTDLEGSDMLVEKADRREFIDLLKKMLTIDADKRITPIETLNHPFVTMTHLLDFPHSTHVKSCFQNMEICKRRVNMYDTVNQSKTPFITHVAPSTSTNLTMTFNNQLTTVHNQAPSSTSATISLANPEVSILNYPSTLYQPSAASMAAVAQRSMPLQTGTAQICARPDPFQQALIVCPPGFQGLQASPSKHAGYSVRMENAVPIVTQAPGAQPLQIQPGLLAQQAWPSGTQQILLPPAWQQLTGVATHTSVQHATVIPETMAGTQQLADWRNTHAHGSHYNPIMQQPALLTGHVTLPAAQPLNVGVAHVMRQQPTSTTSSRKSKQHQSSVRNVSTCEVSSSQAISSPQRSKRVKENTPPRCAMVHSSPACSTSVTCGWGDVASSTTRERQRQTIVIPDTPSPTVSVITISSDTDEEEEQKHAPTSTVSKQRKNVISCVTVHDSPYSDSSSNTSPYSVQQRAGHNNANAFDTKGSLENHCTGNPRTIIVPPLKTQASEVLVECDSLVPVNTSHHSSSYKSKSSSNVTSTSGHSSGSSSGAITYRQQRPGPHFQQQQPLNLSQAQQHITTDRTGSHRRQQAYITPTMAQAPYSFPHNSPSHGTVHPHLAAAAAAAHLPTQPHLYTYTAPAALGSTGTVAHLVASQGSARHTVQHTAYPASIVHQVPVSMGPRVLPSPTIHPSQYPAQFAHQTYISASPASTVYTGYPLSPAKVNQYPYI
Chain of Aurora kinase B (Q96GD4 whole entry): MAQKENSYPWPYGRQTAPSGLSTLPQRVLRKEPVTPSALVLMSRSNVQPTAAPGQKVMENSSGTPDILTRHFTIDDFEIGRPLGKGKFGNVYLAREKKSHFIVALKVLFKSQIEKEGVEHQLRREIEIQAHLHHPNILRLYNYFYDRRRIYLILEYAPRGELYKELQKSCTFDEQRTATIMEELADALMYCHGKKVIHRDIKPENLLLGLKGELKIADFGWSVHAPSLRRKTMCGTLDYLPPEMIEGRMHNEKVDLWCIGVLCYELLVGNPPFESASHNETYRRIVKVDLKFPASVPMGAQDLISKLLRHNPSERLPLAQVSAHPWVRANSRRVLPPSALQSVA

Row | Compound | IC50 [1] | IC50 [2] | IC50 [3] | IC50 [4] | Kd [4]
1 | CN1C(=O)c2ccccc2N(C)c2nc(Nc3ccc(N4CCC(O)CC4)cc3)ncc21 [Benzo[e]pyrimido[5,4-b][1,4]diazepin-6(11H)-one, 1] | 8 nM | 24 nM | 41 nM | – | –
2 | N=C1NC(=O)/C(=C\c2c[nH]c(=O)c(-c3ccc(N4CCNCC4)nc3)c2)S1 [Furan thiazolidinediones, A64] | – | – | – | 74 nM | 9.5 nM
